US8506943B2, “Cyclohexylethyl carboxylic acid ester compositions and method for using the same for reducing malodors” (International Flavors & Fragrances Inc., priority 2009, dated 2013)
Marks after values point to notes of the source that are not given here.

Tests used:
Parameters in all cases: species or system human
[1] = Sweat malodor model (IVA), panel mean rank of odor intensity (Example V); details: for mean rank of the odor intensity: 1 = least intense, 5 = most intense, set of racemate, S and R
Excerpt: (§1) Establishment of a Model of Sweat Malodor: It is known that the perspirative malodors of human body, particularly sweat, are associated with the production of several unpleasant smelling organic acids, particularly isovaleric acid (“IVA”). The commercial sample of this malodorous material (commercially available at Sigma-Aldrich Inc.) was thus used as a model compound to assess the effectiveness of sweat malodor counteractants.
(§2) Preparation of Test Samples: The VEILEX™ mixtures (VEILEX™ I, VEILEX™ II, and VEILEX™ III, commercially available from IFF) and the enantiomeric compounds of the present invention (all with optical purity over 80% ee, synthesized as above) were evaluated for sweat malodor counteracting effectiveness. Different concentrations of VEILEX™ mixtures and their enantiomeric counterparts were used based on the priori usage levels. Additionally, the overall intensity of 1-cyclohexylethanol (1% in diethyl phthalate) was noticeably greater than the other two compounds, a higher concentration of IVA (2% in diethyl phthalate) was therefore used for the test.
(§3) Testing Procedure: A cyclohexylethyl carboxylic acid ester compound (1 g, a racemate or enantiomer) and IVA (1 g, 1-2%) were placed in two 1-ounce jars separately, which were both placed in a 1-gallon jar and capped for 24 hours to allow for the headspace saturation prior to the test. Each set of three test samples (i.e., three 1-gallone jars containing IVA and, respectively, a racemate and each of the two enantiomers) was presented in a blind, random order to internal panelists (consisting of trained females having a mean age of 40 years).
(§4) The panelists were instructed to take the steps of i) uncap a first jar; ii) place their noses immediately above the opening; iii) take short sniffs for 2-3 seconds; iv) cap the jar; v) repeat the steps for the other two jars in the same set; and vi) provide a rank of the odor intensity for a set of three jars using the intensity scales of 1 to 5, where 1 represents the “Least Intense” and 5 represents the “Most Intense”. The ranks of the odor intensity were then statistically analyzed using SPSS 15.0 for Windows. Freidman's non-parametric tests were used to analyze the ranked intensity for each test sample. Post hoc pair-wise comparisons were only conducted when the overall Chi-square omnibus test was statistically significant (p<0.05).

[2] = Mold/mildew malodor model, number of panelists ranking more intense (Example VI); details: for rank of the odor intensity (number of panelists who ranked the more intense): Mold/Mildew, S vs R
Experimental: as §3, §4
(§5) Establishment of Mold/Mildew and Bathroom Malodor Models: In addition to the sweat model established as above, the malodor models of mold/mildew and bathroom were prepared based on applicant's proprietary formulations for assessing the effectiveness of mold/mildew and bathroom malodor counteractants.
(§6) Testing Procedure: Test samples were prepared the same as above. The same procedure was carried out except the ranks of the odor intensity were recorded based on the numbers of the panelists who ranked the more intense.

[3] = Bathroom malodor model, number of panelists ranking more intense (Example VI); details: S vs R
Experimental: as §3, §4, §5, §6

[4] = Mold/mildew malodor intensity on Labeled Magnitude Scale, concentration series (Example VII); details: for Malodor Intensity: LMS mean, 0-100; for % MOR (percent malodor reduction): vs Malodor Alone
Experimental: (§7) Determination of an Effective Concentration of (1R)-1-cyclohexylethyl butyrate: To further identify an effective concentration of (1R)-1-cyclohexylethyl butyrate in counteracting mold/mildew malodor, (1R)-1-cyclohexylethyl butyrate was prepared at a series of concentrations, ranging from 0.05% to 10% in diethyl phthalate, with corresponding vapor phase concentrations ranging from about 0.3 to about 60 μg per liter of air space.
Testing Procedure: The same procedure was carried out as in Example VI to evaluate the effectiveness of different concentrations of (1R)-1-cyclohexylethyl butyrate (“VEILEX™ 1R”) in counteracting mold/mildew malodor. The odor intensity was rated using Labeled Magnitude Scale (LMS) [Green, et al., Chemical Senses, 21(3), June 1996, 323-334]. Mean (“Malodor Intensity”) and standard error of the mean (“SE”, ±) were obtained, where 0 represents “No Sensation” and 100 represents “The Strongest Imaginable Malodor Sensation”. Percent malodor reduction (“% MOR”) represents the reduction in mean malodor intensity of the negative control (Malodor Alone) in the presence of an enantiomeric cyclohexylethyl carboxylic acid ester.

[5] = Sweat malodor model (IVA), number of panelists ranking more intense (Example VI); details: for rank of the odor intensity (number of panelists who ranked the more intense): S vs R
Excerpt: as §1, §2, §3, §4, §6

[6] = Sweat malodor (1% IVA) intensity on Labeled Magnitude Scale, concentration series (Example VIII); details: for Malodor Intensity: LMS mean, 0-100; for % MOR (percent malodor reduction): vs Malodor Alone
Experimental: as §7, with “(1S)-1-cyclohexylethyl acetate:” for “(1R)-1-cyclohexylethyl butyrate:”, “(1S)-1-cyclohexylethyl acetate” for “(1R)-1-cyclohexylethyl butyrate”, “sweat” for “mold/mildew”, “5%” for “10%”, “1.5” for “0.3”, “150” for “60”
Testing Procedure: The same procedures were carried out as in Examples V and VII to evaluate the effectiveness of different concentrations of (1S)-1-cyclohexylethyl acetate (“VEILEX™ 2S”) in counteracting sweat malodor modeled by 1% of IVA.

[7] = compared with enantiomeric counterpart

CC(O)C1CCCCC1 (racemic) [1-cyclohexylethanol M, 1-cyclohexylethanol, reference compound]
mean rank of the odor intensity ([1]; IVA (2%), test compound 1%): 2.58

CCCC(=O)O[C@H](C)C1CCCCC1 [1-cyclohexylethyl butyrate R, (1R)-1-cyclohexylethyl butyrate]
rank of the odor intensity (number of panelists who ranked the more intense) ([2]; test compound 5%): 5*
effectiveness in counteracting mold/mildew malodor (in words) [2, 7]: significantly and specifically effective in counteracting mold/mildew malodor
rank of the odor intensity (number of panelists who ranked the more intense) ([3]; test compound 5%): 13
mean rank of the odor intensity ([1]; IVA (1%), test compound 5%): 1.42
Malodor Intensity ([4]; 0.05%, 0.3 μg/L): 13.70
% MOR (percent malodor reduction) ([4]; 0.05%, 0.3 μg/L): 13%
Malodor Intensity ([4]; 0.1%, 0.6 μg/L): 11.86
% MOR (percent malodor reduction) ([4]; 0.1%, 0.6 μg/L): 24%
Malodor Intensity ([4]; 0.5%, 3 μg/L): 12.03
% MOR (percent malodor reduction) ([4]; 0.5%, 3 μg/L): 23%
Malodor Intensity ([4]; 1%, 6 μg/L): 11.66
% MOR (percent malodor reduction) ([4]; 1%, 6 μg/L): 22%
Malodor Intensity ([4]; 10%, 60 μg/L): 8.25
% MOR (percent malodor reduction) ([4]; 10%, 60 μg/L): 47%
rank of the odor intensity (number of panelists who ranked the more intense) ([5]; IVA (1%), test compound 5%): 4

CC(=O)OC(C)C1CCCCC1 (racemic) [1-cyclohexylethyl acetate M, 1-cyclohexylethyl acetate, reference compound]
mean rank of the odor intensity ([1]; IVA (1%), test compound 2%): 2.15

CC(=O)O[C@@H](C)C1CCCCC1 [1-cyclohexylethyl acetate S, (1S)-1-cyclohexylethyl acetate]
rank of the odor intensity (number of panelists who ranked the more intense) ([2]; test compound 2%): 14
rank of the odor intensity (number of panelists who ranked the more intense) ([3]; test compound 2%): 13
Malodor Intensity ([6]; 0.05%, 1.5 μg/L): 17.98
% MOR (percent malodor reduction) ([6]; 0.05%, 1.5 μg/L): 23%
Malodor Intensity ([6]; 0.1%, 3 μg/L): 18.29
% MOR (percent malodor reduction) ([6]; 0.1%, 3 μg/L): 23%
Malodor Intensity ([6]; 0.5%, 15 μg/L): 14.8
% MOR (percent malodor reduction) ([6]; 0.5%, 15 μg/L): 37%
Malodor Intensity ([6]; 1%, 30 μg/L): 14.15
% MOR (percent malodor reduction) ([6]; 1%, 30 μg/L): 42%
Malodor Intensity ([6]; 5%, 150 μg/L): 8.35
% MOR (percent malodor reduction) ([6]; 5%, 150 μg/L): 55%
mean rank of the odor intensity ([1]; IVA (1%), test compound 2%): 1.38*
effectiveness in counteracting sweat malodor (in words) ([1]; compared with racemate and R enantiomer): particularly effective in counteracting sweat malodor
rank of the odor intensity (number of panelists who ranked the more intense) ([5]; IVA (1%), test compound 2%): 2*
effectiveness in counteracting sweat malodor (in words) [5, 7]: significantly and specifically effective in counteracting sweat malodor

CCCC(=O)OC(C)C1CCCCC1 (racemic) [1-cyclohexylethyl butyrate M, 1-cyclohexylethyl butyrate, reference compound]
mean rank of the odor intensity ([1]; IVA (1%), test compound 5%): 2.50

C[C@H](O)C1CCCCC1 [1-cyclohexylethanol S, (S)-1-cyclohexylethanol]
rank of the odor intensity (number of panelists who ranked the more intense) ([2]; test compound 1%): 12
rank of the odor intensity (number of panelists who ranked the more intense) ([3]; test compound 1%): 12
mean rank of the odor intensity ([1]; IVA (2%), test compound 1%): 1.92
rank of the odor intensity (number of panelists who ranked the more intense) ([5]; IVA (2%), test compound 1%): 7

C[C@@H](O)C1CCCCC1 [1-cyclohexylethanol R, (R)-1-cyclohexylethanol]
rank of the odor intensity (number of panelists who ranked the more intense) ([2]; test compound 1%): 13
rank of the odor intensity (number of panelists who ranked the more intense) ([3]; test compound 1%): 13
mean rank of the odor intensity ([1]; IVA (2%), test compound 1%): 1.50
rank of the odor intensity (number of panelists who ranked the more intense) ([5]; IVA (2%), test compound 1%): 5

CC(=O)O[C@H](C)C1CCCCC1 [1-cyclohexylethyl acetate R, (R)-1-cyclohexylethyl acetate]
rank of the odor intensity (number of panelists who ranked the more intense) ([2]; test compound 2%): 11
rank of the odor intensity (number of panelists who ranked the more intense) ([3]; test compound 2%): 12
mean rank of the odor intensity ([1]; IVA (1%), test compound 2%): 2.46
rank of the odor intensity (number of panelists who ranked the more intense) ([5]; IVA (1%), test compound 2%): 11

CCCC(=O)O[C@@H](C)C1CCCCC1 [1-cyclohexylethyl butyrate S, (S)-1-cyclohexylethyl butyrate]
rank of the odor intensity (number of panelists who ranked the more intense) ([2]; test compound 5%): 20
rank of the odor intensity (number of panelists who ranked the more intense) ([3]; test compound 5%): 12
mean rank of the odor intensity ([1]; IVA (1%), test compound 5%): 2.08
rank of the odor intensity (number of panelists who ranked the more intense) ([5]; IVA (1%), test compound 5%): 8
